Test results: BindingDB's records for doi:10.1021/ml1002508 (2011)

Test: Agonist activity at androgen receptor expressed in mouse C2C12 cells assessed as osteoblast differentiation after 5 days

Cc1c(N[C@@H](c2nnc(-c3ccc(C#N)cc3)o2)[C@H](C)O)ccc(C#N)c1Cl [2-chloro-4-((1R,2S)-1-(5-(4-cyanophenyl)-1,3,4-oxadiazol-2-yl)-2-hydroxypropylamino)-3-methylbenzonitrile]
EC50: 100 pM
